Article PMC4177084 (Journal of Thyroid Research, 2014)
Where two headings read alike, the source gives them in different places.

Tests used:
RO82-W-1 cells = assay: Antiproliferation assay (WST-8); format: cell-based, human; settings: for antiproliferative activity: RO82-W-1, in words; for T/N: ratio of IC50 values of thyroid cancer cell lines to that of Nthy-ori 3-1 cells: RO82-W-1; for IC50: RO82-W-1 (DTC), antiproliferative, 3 days
FTC-238 cells = assay: Antiproliferation assay (WST-8); format: cell-based, human; settings: for T/N: ratio of IC50 values of thyroid cancer cell lines to that of Nthy-ori 3-1 cells: FTC-238; for IC50: FTC-238 (DTC), antiproliferative, 3 days
FTC-133 cells = assay: Antiproliferation assay (WST-8); format: cell-based, human; settings: for T/N: ratio of IC50 values of thyroid cancer cell lines to that of Nthy-ori 3-1 cells: FTC-133; for IC50: FTC-133 (DTC), antiproliferative, 3 days
Nthy-ori 3-1 cells = assay: Antiproliferation assay (WST-8); format: cell-based, human; settings: Nthy-ori 3-1 (normal thyroid), antiproliferative, 3 days
FTC-236 cells = assay: Antiproliferation assay (WST-8); format: cell-based, human
K1 cells = assay: Antiproliferation assay (WST-8); format: cell-based, human; settings: for T/N: ratio of IC50 values of thyroid cancer cell lines to that of Nthy-ori 3-1 cells: K1; for IC50: K1 (DTC), antiproliferative, 3 days
[1] = tested on: FGFR1 and its downstream effectors (FRS2, MEK, ERK); assay: Western blot of FGFR1 signaling in bFGF-stimulated RO82-W-1 cells
RO82-W-1 xenograft = assay: Human thyroid cancer xenograft model, tumor growth; format: in vivo, nude mice
Description: Nude mice (CAnN.Cg-Foxn1nu/CrlCrlj, female, 5-6 weeks old) were obtained from Charles River Laboratories Japan (Kanagawa, Japan). Mice were maintained under specific pathogen-free conditions and housed in barrier facilities on a 12 h light/dark cycle, with food and water ad libitum. All procedures using laboratory animals were done in accordance with all applicable institutional and government regulatory guidelines and policies and were performed in an animal facility accredited by the Center for Accreditation of Laboratory Animal Care of the Japan Health Sciences Foundation.
Tumor cells were cultured in appropriate culture mediums. Cells were harvested with 0.05% or 0.25% (w/v) trypsin/EDTA and suspended with 50% (v/v) BD Matrigel (BD Biosciences, San Jose, CA) in the mixture of culture mediums at a density of 5–10 × 10^7 cells/mL. Then, 0.1-0.2 mL of the cell suspension was inoculated subcutaneously into the right flank region of each mouse. […] The tumor size was measured in two dimensions by using a caliper, and the volume was calculated by using the formula: tumor volume (mm^3) = 1/2 length (mm) × [width (mm)]^2. The change in tumor volume in the treated group relative to that in the control group was calculated according to the following formula: ΔT/C = (ΔT/ΔC) × 100%, where ΔT and ΔC are the change in tumor volume (i.e., growth) for the treated and vehicle control group, respectively. The percentage of tumor growth inhibition (%TGI) was calculated from the formula: [(1 − ΔT/ΔC) × 100].
Supplementary Fig. S7 Comparison of antitumor activity with antiangiogenesis activity in human differentiated thyroid cancer RO82-W-1 xenografts in nude mice.
Nude mice bearing RO82-W-1 xenografts […]
when tumor volumes reached about 200 mm3 (day 1). The tumor volume was measured on day 22. Each group consisted of 6 mice. Data are shown as means ± SD. * P < 0.05 compared with vehicle-treated mice.
(b) The percentage of tumor growth inhibition (%TGI). Each group consisted of 6 mice. Antitumor activity was calculated as %TGI at day 22. Data are shown as means ± SD. * P < 0.05 compared […]
analyze the relationship between antitumor activity (%TGI) and antiangiogenesis activity (percentage of […]
sorafenib-treated groups were plotted on the X- and Y-axes, respectively. %TGI and %MVI was determined as described in Materials and Methods. Analysis of covariance (ANCOVA) for %TGI was examined by using %MVI as a covariate (P<0.05)

COT = biological target: T1, COT (Homo sapiens, UniProt P41279); assay: Cell free kinase inhibition assay; format: biochemical
T1 construct: purchased Carna Biosciences, Inc. (Kobe, Japan)
Description: […]. Briefly, each test compound was mixed with enzyme, substrate, ATP, and Mg under appropriate buffer conditions for the ELISA or MSA. […] IC50 values (the half maximal inhibitory concentration) were calculated from concentrations versus % inhibition curves.

TT cells = assay: Antiproliferation assay (WST-8); format: cell-based; settings: Homo sapiens, TT, 240 h
[2] = FTC-236 (DTC), antiproliferative, 3 days, read-out: IC50

T1 sequence (P41279 whole entry): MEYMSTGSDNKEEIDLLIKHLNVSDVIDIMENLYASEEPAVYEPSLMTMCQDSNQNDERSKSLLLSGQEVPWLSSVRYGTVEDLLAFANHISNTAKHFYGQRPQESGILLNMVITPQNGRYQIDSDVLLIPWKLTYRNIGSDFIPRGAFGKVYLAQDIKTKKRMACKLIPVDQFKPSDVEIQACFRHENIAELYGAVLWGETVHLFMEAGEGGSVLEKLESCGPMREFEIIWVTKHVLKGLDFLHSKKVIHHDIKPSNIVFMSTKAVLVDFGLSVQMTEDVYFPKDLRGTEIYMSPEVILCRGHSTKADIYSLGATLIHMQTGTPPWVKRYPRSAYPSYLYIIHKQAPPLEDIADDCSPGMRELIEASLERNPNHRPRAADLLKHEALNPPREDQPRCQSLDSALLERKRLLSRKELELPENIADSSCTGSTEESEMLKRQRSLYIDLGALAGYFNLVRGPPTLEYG

| SMILES | T/N: ratio of IC50 values of thyroid cancer cell lines to that of Nthy-ori 3-1 cells (FTC-238 cells) | T/N: ratio of IC50 values of thyroid cancer cell lines to that of Nthy-ori 3-1 cells (FTC-133 cells) | T/N: ratio of IC50 values of thyroid cancer cell lines to that of Nthy-ori 3-1 cells (RO82-W-1 cells) | T/N: ratio of IC50 values of thyroid cancer cell lines to that of Nthy-ori 3-1 cells (K1 cells) | antiproliferative activity (RO82-W-1 cells) | IC50 (FTC-238 cells) | IC50 (FTC-133 cells) | IC50 (Nthy-ori 3-1 cells) | IC50 (RO82-W-1 cells) | IC50 (FTC-236 cells; [2]) | IC50 (K1 cells) | IC50 (FTC-238 cells; Homo sapiens, 72 h) | IC50 (FTC-133 cells; Homo sapiens, 72 h) | IC50 (RO82-W-1 cells; Homo sapiens, 72 h) | IC50 (K1 cells; Homo sapiens, 72 h) | other results |
| --- | --- | --- | --- | --- | --- | --- | --- | --- | --- | --- | --- | --- | --- | --- | --- | --- |
| Cc1ccc(NC(=O)c2ccc(CN3CCN(C)CC3)cc2)cc1Nc1nccc(-c2cccnc2)n1 [Glivec, imatinib] | – | – | – | – | no antiproliferative activity | – | – | – | – | – | – | – | – | – | – | – |
| COc1ccc(Oc2ccnc3cc(OC)c(OC)cc23)cc1OC [Ki6783] | 1.2 | 4.7 | 1.5 | 5.4 | no antiproliferative activity | 2 µM | 8 µM | 1.7 µM | 2.5 µM | > 30 µM | 9.2 µM | – | – | – | – | – |
| CNC(=O)c1cc(Oc2ccc(NC(=O)Nc3ccc(Cl)c(C(F)(F)F)c3)cc2)ccn1 [Sorafenib] | – | – | – | – | – | – | – | – | – | – | – | 7.3 µM | 5.5 µM | 4.2 µM | 5.2 µM | phosphorylation of MEK ([1]; 10 μM, bFGF-stimulated): weakly inhibited; phosphorylation of FGFR1 or its other downstream effectors ([1]; up to 10 μM, bFGF-stimulated): did not clearly inhibit; IC50 (COT): > 10 µM; IC50 (FTC-236 cells; Homo sapiens, 72 h): 7.7 µM; IC50 (TT cells): 0.26 µM; tumor growth (RO82-W-1 xenograft; RO82-W-1 xenografts, oral once daily 21 days, doses between 30 and 300 mg/kg): inhibited tumor growth |

Now from value to compound, other results behind:

| T/N: ratio of IC50 values of thyroid cancer cell lines to that of Nthy-ori 3-1 cells (FTC-238 cells) | T/N: ratio of IC50 values of thyroid cancer cell lines to that of Nthy-ori 3-1 cells (FTC-133 cells) | T/N: ratio of IC50 values of thyroid cancer cell lines to that of Nthy-ori 3-1 cells (RO82-W-1 cells) | T/N: ratio of IC50 values of thyroid cancer cell lines to that of Nthy-ori 3-1 cells (K1 cells) | SMILES | antiproliferative activity (RO82-W-1 cells) | IC50 (FTC-238 cells) | IC50 (FTC-133 cells) | IC50 (Nthy-ori 3-1 cells) | IC50 (RO82-W-1 cells) | IC50 (FTC-236 cells; [2]) | IC50 (K1 cells) | IC50 (FTC-238 cells; Homo sapiens, 72 h) | IC50 (FTC-133 cells; Homo sapiens, 72 h) | IC50 (RO82-W-1 cells; Homo sapiens, 72 h) | IC50 (K1 cells; Homo sapiens, 72 h) | other results |
| --- | --- | --- | --- | --- | --- | --- | --- | --- | --- | --- | --- | --- | --- | --- | --- | --- |
| 1.5 | 1.64 | 0.14 | 2.07 | COc1cc(OC)cc(-c2cc3cnc(N)nc3nc2NC(=O)NC(C)(C)C)c1 [PD166866] | – | 21 µM | 23 µM | 14 µM | 1.9 µM | > 30 µM | 29 µM | – | – | – | – | – |
| 2.04 | 2.11 | 0.14 | 2.39 | CCN(CC)CCCCNc1ncc2cc(-c3cc(OC)cc(OC)c3)c(NC(=O)NC(C)(C)C)nc2n1 [PD173074] | – | – | – | – | – | – | – | 9.4 µM | 9.7 µM | 0.63 µM | 11 µM | phosphorylation of FGFR1, FRS2, MEK, and ERK ([1]; 1 h treatment, then bFGF 20 ng/mL and heparin 10 min): inhibited the bFGF-induced phosphorylation of FGFR1, FRS2, MEK, and ERK in a concentration-dependent manner; IC50 (Nthy-ori 3-1 cells; Homo sapiens, 72 h): 4.6 µM; T/N: ratio of IC50 values of thyroid cancer cell lines to that of Nthy-ori 3-1 cells (FTC-236 cells; FTC-236): 0.93; IC50 (FTC-236 cells; Homo sapiens, 72 h, FTC-236 (DTC), antiproliferative, 3 days, read-out: IC50): 4.3 µM; antitumor activity (RO82-W-1 xenograft; RO82-W-1 xenograft, daily oral administration for 14 days): significant antitumor activity |
